Columns and labels:
[1] = target: Casein kinase I isoform delta (Homo sapiens) (UniProt P48730); experiment: Inhibition of human CK1D catalytic domain expressed in Escherichia coli cell assessed as substrate phosphorylation using fluorescence-labelled peptides as substrate at 8 uM after 90 mins by microfluidic peptide phosphorylation assay
[2] = target: T1, Serine/threonine-protein kinase Sgk3 (Homo sapiens) (UniProt Q96BR1); experiment: Inhibition of human full length SGK3 expressed in baculovirus assessed as substrate phosphorylation using fluorescence-labelled peptides as substrate at 0.06 uM after 90 mins by microfluidic peptide phosphorylation assay
T1 sequence (whole entry): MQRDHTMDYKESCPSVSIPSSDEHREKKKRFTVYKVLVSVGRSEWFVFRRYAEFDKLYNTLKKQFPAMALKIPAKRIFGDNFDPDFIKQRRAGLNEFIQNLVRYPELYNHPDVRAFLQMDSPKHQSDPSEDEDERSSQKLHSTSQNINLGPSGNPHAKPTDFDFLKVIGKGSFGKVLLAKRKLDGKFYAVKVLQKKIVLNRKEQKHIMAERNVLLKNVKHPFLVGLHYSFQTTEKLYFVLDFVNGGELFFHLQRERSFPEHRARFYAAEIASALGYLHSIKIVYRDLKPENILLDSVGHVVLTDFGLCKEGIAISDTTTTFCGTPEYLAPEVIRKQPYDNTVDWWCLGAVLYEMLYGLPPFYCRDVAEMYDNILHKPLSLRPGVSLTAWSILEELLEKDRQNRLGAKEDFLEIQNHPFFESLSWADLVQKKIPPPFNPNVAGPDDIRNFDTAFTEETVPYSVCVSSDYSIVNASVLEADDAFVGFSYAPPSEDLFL

[3] = target: T2, MAP kinase-activated protein kinase 5 (Homo sapiens) (UniProt Q8IW41); experiment: Inhibition of human full length PRAK expressed in baculovirus assessed as substrate phosphorylation using fluorescence-labelled peptides as substrate at 0.06 uM after 90 mins by microfluidic peptide phosphorylation assay
T2 sequence (whole entry): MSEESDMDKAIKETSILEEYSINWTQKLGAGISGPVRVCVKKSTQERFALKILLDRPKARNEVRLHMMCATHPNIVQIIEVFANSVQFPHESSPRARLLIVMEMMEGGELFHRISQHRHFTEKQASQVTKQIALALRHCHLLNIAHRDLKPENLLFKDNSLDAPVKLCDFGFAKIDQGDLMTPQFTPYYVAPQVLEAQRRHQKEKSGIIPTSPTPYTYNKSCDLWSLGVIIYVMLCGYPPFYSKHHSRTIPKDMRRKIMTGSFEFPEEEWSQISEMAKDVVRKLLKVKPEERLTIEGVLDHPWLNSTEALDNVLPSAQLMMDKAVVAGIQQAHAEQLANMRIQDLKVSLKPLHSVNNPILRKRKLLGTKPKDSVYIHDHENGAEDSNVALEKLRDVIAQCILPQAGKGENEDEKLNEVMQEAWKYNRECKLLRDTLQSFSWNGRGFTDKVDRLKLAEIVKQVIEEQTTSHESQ

[4] = target: Fibroblast growth factor receptor 2 (Homo sapiens) (UniProt P21802); experiment: Inhibition of human FGFR2 catalytic domain expressed in baculovirus assessed as substrate phosphorylation using fluorescence-labelled peptides as substrate at 0.2 uM after 90 mins by microfluidic peptide phosphorylation assay
[5] = target: Protein kinase C theta type (Homo sapiens) (UniProt Q04759); experiment: Inhibition of human truncated PKC theta expressed in baculovirus assessed as substrate phosphorylation using fluorescence-labelled peptides as substrate at 2 uM after 90 mins by microfluidic peptide phosphorylation assay
Protein kinase C theta type (Homo sapiens), sequence (Q04759 whole entry, looked up, the tested form may be a part): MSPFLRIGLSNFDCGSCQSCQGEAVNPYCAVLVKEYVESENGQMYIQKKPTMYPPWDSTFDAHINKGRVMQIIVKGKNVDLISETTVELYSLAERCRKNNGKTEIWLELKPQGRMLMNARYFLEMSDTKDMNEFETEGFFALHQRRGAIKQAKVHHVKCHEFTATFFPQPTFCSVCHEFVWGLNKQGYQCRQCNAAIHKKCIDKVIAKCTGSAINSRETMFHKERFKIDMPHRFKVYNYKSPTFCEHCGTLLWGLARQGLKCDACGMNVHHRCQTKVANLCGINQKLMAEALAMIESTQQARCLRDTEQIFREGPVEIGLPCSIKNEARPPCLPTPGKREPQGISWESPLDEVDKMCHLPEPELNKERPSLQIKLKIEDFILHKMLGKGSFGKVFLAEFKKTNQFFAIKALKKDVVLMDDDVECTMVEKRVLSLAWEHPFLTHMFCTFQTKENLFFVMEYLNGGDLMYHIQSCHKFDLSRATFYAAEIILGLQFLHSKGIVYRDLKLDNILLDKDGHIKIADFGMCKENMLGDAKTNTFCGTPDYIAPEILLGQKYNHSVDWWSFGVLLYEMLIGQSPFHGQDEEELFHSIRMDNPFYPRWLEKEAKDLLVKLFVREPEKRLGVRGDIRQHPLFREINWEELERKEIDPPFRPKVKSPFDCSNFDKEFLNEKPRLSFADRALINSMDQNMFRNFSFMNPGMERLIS

[6] = target: Serine/threonine-protein kinase pim-1 (Homo sapiens) (UniProt P11309); experiment: Inhibition of human full length PIM1 expressed in baculovirus assessed as substrate phosphorylation using fluorescence-labelled peptides as substrate at […] after 90 mins by microfluidic peptide phosphorylation assay
Serine/threonine-protein kinase pim-1 (Homo sapiens), sequence (P11309 whole entry, looked up): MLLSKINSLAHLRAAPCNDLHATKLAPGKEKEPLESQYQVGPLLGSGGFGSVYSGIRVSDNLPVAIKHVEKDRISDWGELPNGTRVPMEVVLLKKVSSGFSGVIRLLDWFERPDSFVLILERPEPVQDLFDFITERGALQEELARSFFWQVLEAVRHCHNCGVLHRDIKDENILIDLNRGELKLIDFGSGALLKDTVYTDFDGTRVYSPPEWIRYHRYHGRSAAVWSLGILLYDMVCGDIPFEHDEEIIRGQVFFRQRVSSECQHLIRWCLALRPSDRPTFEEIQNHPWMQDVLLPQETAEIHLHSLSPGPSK

[7] = target: T2, MAP kinase-activated protein kinase 5 (Homo sapiens); experiment: Inhibition of human full length PRAK expressed in baculovirus assessed as substrate phosphorylation using fluorescence-labelled peptides as substrate at 9 uM after 90 mins by microfluidic peptide phosphorylation assay
[8] = target: Ribosomal protein S6 kinase alpha-2 (Homo sapiens) (UniProt Q15349); experiment: Inhibition of human full length RSK3 expressed in baculovirus assessed as substrate phosphorylation using fluorescence-labelled peptides as substrate at 9 uM after 90 mins by microfluidic peptide phosphorylation assay
Ribosomal protein S6 kinase alpha-2 (Homo sapiens), sequence (Q15349 whole entry, the tested form may be a part): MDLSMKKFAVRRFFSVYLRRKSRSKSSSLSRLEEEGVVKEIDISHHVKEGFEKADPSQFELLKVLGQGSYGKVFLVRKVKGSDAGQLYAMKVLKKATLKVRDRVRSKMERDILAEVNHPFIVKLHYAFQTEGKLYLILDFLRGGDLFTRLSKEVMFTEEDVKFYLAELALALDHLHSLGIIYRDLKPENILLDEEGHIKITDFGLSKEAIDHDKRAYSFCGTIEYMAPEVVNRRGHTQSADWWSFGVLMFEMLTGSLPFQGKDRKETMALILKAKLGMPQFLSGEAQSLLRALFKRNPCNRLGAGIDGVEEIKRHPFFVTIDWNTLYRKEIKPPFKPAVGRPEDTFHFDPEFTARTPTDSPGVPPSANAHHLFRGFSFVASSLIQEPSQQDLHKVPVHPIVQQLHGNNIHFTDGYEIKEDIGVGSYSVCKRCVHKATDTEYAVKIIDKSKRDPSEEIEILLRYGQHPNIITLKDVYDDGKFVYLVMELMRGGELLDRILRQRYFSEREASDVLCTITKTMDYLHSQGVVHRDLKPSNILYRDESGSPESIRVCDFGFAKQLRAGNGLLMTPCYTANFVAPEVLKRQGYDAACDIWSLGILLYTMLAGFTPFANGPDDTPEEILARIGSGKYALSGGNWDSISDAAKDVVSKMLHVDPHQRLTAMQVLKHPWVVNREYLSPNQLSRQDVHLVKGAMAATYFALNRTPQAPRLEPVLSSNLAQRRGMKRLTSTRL

[9] = target: Protein kinase C alpha type (Homo sapiens) (UniProt P17252); experiment: Inhibition of human truncated PKC alpha expressed in baculovirus assessed as substrate phosphorylation using fluorescence-labelled peptides as substrate at 9 uM after 90 mins by microfluidic peptide phosphorylation assay
[10] = target: Ribosomal protein S6 kinase alpha-1 (Homo sapiens) (UniProt Q15418); experiment: Inhibition of human full length RSK1 expressed in baculovirus assessed as substrate phosphorylation using fluorescence-labelled peptides as substrate at 0.1 uM after 90 mins by microfluidic peptide phosphorylation assay
Ribosomal protein S6 kinase alpha-1 (Homo sapiens), sequence (Q15418 whole entry, the tested form may be a part): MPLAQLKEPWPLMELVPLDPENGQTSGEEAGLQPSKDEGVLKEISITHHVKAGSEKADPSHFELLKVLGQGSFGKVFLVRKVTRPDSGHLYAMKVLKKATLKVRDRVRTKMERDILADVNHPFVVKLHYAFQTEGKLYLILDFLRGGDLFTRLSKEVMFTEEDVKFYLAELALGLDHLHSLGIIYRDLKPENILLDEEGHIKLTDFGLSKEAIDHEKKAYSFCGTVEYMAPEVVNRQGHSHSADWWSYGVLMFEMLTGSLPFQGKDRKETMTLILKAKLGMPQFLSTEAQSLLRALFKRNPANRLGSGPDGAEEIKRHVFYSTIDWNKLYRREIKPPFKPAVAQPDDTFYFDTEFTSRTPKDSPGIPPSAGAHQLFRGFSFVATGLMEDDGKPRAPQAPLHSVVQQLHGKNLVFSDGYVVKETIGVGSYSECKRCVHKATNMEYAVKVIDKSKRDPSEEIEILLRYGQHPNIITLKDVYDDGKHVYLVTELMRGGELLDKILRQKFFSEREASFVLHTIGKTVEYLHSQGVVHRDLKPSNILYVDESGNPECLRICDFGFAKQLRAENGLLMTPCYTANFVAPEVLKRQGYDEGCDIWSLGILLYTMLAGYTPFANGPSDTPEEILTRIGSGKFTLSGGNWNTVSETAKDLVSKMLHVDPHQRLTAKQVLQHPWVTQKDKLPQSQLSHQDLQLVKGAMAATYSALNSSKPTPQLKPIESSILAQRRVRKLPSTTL

[11] = target: Protein kinase C alpha type (Homo sapiens) (UniProt P17252); experiment: Inhibition of human truncated PKC alpha expressed in baculovirus assessed as substrate phosphorylation using fluorescence-labelled peptides as substrate at 1000 uM after 90 mins by microfluidic peptide phosphorylation assay
[12] = target: Fibroblast growth factor receptor 3 (Homo sapiens) (UniProt P22607); experiment: Inhibition of human FGFR3 catalytic domain expressed in baculovirus assessed as substrate phosphorylation using fluorescence-labelled peptides as substrate at 70 uM after 90 mins by microfluidic peptide phosphorylation assay
Fibroblast growth factor receptor 3 (Homo sapiens), sequence (P22607 23-806 limits assumed): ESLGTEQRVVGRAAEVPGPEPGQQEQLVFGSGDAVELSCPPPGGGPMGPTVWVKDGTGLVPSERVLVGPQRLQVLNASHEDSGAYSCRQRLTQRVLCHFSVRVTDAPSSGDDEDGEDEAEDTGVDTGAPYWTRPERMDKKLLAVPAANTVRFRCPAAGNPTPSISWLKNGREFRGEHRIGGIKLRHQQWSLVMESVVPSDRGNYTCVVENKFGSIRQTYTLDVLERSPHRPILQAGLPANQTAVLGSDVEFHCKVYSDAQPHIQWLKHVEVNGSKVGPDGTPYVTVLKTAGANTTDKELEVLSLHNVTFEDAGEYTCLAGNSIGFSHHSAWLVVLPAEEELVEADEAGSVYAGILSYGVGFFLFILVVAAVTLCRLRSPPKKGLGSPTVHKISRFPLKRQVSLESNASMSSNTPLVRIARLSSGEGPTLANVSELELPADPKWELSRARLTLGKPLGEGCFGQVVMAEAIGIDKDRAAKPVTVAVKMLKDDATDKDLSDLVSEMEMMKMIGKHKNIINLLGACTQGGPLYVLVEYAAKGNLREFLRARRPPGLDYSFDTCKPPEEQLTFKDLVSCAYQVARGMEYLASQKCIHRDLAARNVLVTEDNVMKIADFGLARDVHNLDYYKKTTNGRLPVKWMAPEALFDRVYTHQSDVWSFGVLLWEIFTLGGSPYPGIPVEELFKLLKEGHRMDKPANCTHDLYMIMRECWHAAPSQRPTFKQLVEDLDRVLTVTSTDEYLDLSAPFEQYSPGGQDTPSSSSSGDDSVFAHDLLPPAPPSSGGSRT

[13] = target: Glycogen synthase kinase-3 beta (Homo sapiens) (UniProt P49841); experiment: Inhibition of human full length GSK-3 beta expressed in baculovirus assessed as substrate phosphorylation using fluorescence-labelled peptides as substrate at 70 uM after 90 mins by microfluidic peptide phosphorylation assay
Glycogen synthase kinase-3 beta (Homo sapiens), sequence (P49841 whole entry, looked up): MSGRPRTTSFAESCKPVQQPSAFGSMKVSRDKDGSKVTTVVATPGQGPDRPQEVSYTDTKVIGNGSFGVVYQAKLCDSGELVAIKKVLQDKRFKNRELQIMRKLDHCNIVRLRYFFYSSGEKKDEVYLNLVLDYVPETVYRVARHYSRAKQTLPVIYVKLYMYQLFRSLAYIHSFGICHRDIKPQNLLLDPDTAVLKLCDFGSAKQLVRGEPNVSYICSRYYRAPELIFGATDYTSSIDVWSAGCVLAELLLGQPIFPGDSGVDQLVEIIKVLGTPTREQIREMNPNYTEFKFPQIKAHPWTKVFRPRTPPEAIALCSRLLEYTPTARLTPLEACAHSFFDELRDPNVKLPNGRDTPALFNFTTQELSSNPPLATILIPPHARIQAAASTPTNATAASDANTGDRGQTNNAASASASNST

[14] = target: T3, cGMP-dependent protein kinase 1 (Homo sapiens) (UniProt Q13976); experiment: Inhibition of human full length PKG-1beta expressed in baculovirus assessed as substrate phosphorylation using fluorescence-labelled peptides as substrate at 420 uM after 90 mins by microfluidic peptide phosphorylation assay
T3 sequence (whole entry): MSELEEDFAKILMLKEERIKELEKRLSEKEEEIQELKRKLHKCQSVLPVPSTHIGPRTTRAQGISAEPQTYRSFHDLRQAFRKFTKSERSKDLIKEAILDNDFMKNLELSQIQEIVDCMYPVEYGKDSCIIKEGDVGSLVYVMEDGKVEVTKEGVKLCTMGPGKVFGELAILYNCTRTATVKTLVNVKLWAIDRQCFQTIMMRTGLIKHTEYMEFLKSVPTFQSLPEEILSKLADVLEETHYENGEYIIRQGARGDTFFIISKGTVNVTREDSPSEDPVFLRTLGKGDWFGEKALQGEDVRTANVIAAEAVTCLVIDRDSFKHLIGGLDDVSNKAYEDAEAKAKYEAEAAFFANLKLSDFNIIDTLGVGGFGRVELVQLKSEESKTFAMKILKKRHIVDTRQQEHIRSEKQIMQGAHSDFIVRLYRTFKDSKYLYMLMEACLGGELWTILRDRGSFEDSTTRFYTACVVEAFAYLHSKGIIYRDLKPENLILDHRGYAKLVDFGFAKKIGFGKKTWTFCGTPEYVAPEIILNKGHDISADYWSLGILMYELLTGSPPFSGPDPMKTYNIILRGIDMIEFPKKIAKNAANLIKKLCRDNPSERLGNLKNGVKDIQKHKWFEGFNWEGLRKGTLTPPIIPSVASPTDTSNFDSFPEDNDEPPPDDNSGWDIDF

Casein kinase I isoform delta (Homo sapiens), sequence (P48730 whole entry, looked up, the tested form may be a part, canonical isoform): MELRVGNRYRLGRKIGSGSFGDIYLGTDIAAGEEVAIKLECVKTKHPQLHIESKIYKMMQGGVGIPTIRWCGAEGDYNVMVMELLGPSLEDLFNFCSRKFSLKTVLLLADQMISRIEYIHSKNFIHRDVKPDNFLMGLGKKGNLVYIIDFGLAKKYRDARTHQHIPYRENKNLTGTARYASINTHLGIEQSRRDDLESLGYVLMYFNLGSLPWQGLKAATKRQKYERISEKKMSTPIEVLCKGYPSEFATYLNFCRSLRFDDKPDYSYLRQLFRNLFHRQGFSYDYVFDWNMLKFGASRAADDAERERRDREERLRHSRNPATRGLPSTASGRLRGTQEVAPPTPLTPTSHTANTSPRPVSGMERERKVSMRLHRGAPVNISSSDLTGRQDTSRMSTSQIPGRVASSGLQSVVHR

NCC1CCN(c2ncnc3[nH]ccc23)CC1
inhibition [1]: 25.5%

NC1(Cc2ccc(Cl)cc2)CCN(c2ncnc3[nH]ccc23)CC1
inhibition [2]: 42.5%
inhibition [3]: 0%

Clc1ccc(C2(c3ccc(-c4ncnc5[nH]cnc45)cc3)CCNCC2)cc1
inhibition [4]: 4%

NC1CCN(c2ncnc3[nH]ccc23)CC1
inhibition [5]: 13%

COC(=O)c1cnc(Nc2cnc(C#N)cn2)cc1NCC1CCNCC1
inhibition [6]: 7%

NCC1CN(c2ncnc3[nH]c4cnccc4c23)CCO1 (centres undefined)
inhibition [7]: 0%
inhibition [8]: 95.5%
inhibition [9]: 14.5%

C[C@H](CN(C)C)Oc1nc(Nc2cc3cccc(Cl)c3cn2)cnc1C#N
inhibition [10]: 48.5%

c1cnc2[nH]ccc2c1
inhibition [11]: 43%

CNCc1ccc(-c2ncnc3[nH]cnc23)cc1
inhibition [12]: 27.5%
inhibition [13]: 37.5%

c1nc(N2CCOCC2)c2nc[nH]c2n1
inhibition [14]: 95.5%

— ChEMBL document CHEMBL3132769, “Fragment growing to retain or alter the selectivity of anchored kinase hinge-binding fragments” (Medchemcomm, 2014)
